Experimental data as given in ChEMBL document CHEMBL5303573, “Mapping human microbiome drug metabolism by gut bacteria and their genes” (Nature, 2019).

Tests used:
[1] = The drug is tested on Bifidobacterium longum subsp. Infantis strain: CCUG52486 for biotransformation. The drug concentrations were measured before and after a 12-h incubation by liquid-chromatography-coupled mass spectrometry (LC–MS); conditions: 2 µM
[2] = The drug is tested on Collinsella intestinalis strain: DSM13280 for biotransformation. The drug concentrations were measured before and after a 12-h incubation by liquid-chromatography-coupled mass spectrometry (LC–MS); conditions: 2 µM
[3] = The drug is tested on Bacteroides cellulosilyticus strain: DSM14838 for biotransformation. The drug concentrations were measured before and after a 12-h incubation by liquid-chromatography-coupled mass spectrometry (LC–MS); conditions: 2 µM
[4] = The drug is tested on Bacteroides fragilis strain: HMW615 for biotransformation. The drug concentrations were measured before and after a 12-h incubation by liquid-chromatography-coupled mass spectrometry (LC–MS); conditions: 2 µM
[5] = The drug is tested on Bacteroides fragilis strain: ATCC43859 for biotransformation. The drug concentrations were measured before and after a 12-h incubation by liquid-chromatography-coupled mass spectrometry (LC–MS); conditions: 2 µM
[6] = The drug is tested on Blautia hansenii strain: DSM20583 for biotransformation. The drug concentrations were measured before and after a 12-h incubation by liquid-chromatography-coupled mass spectrometry (LC–MS); conditions: 2 µM
[7] = The drug is tested on Clostridium asparagiforme strain: DSM15981 for biotransformation. The drug concentrations were measured before and after a 12-h incubation by liquid-chromatography-coupled mass spectrometry (LC–MS); assay type: ADME; set-up: dose 2 uM, timepoint 0 vs 12 hours; conditions: enterocloster asparagiformis, 2 µM
[8] = The drug is tested on Clostridium sp. strain: fecal isolate for biotransformation. The drug concentrations were measured before and after a 12-h incubation by liquid-chromatography-coupled mass spectrometry (LC–MS); conditions: 2 µM
[9] = The drug is tested on Enterococcus faecalis strain: V583 for biotransformation. The drug concentrations were measured before and after a 12-h incubation by liquid-chromatography-coupled mass spectrometry (LC–MS); conditions: 2 µM
[10] = The drug is tested on Eubacterium hallii strain: DSM3353 for biotransformation. The drug concentrations were measured before and after a 12-h incubation by liquid-chromatography-coupled mass spectrometry (LC–MS); conditions: anaerobutyricum hallii, 2 µM
[11] = The drug is tested on Ruminococcus gnavus strain: ATCC29149 for biotransformation. The drug concentrations were measured before and after a 12-h incubation by liquid-chromatography-coupled mass spectrometry (LC–MS); conditions: mediterraneibacter gnavus, 2 µM
[12] = The drug is tested on Providencia rettgeri strain: DSM1131 for biotransformation. The drug concentrations were measured before and after a 12-h incubation by liquid-chromatography-coupled mass spectrometry (LC–MS); assay type: ADME; set-up: dose 2 uM, timepoint 0 vs 12 hours; conditions: 2 µM
[13] = bacteroides eggerthii, 12 h, 2 µM
Description: The drug is tested on Bacteroides eggerthii strain: DSM20697 for biotransformation. The drug concentrations were measured before and after a 12-h incubation by liquid-chromatography-coupled mass spectrometry (LC–MS)

[14] = bacteroides stercoris, 12 h, 2 µM
Description: The drug is tested on Bacteroides stercoris strain: ATCC43183 for biotransformation. The drug concentrations were measured before and after a 12-h incubation by liquid-chromatography-coupled mass spectrometry (LC–MS)

[15] = bacteroides thetaiotaomicron, 12 h, 2 µM
Description: The drug is tested on Bacteroides thetaiotaomicron strain: VPI-5482 for biotransformation. The drug concentrations were measured before and after a 12-h incubation by liquid-chromatography-coupled mass spectrometry (LC–MS)

[16] = segatella copri, 12 h, 2 µM
Description: The drug is tested on Prevotella copri strain: DSM18205 for biotransformation. The drug concentrations were measured before and after a 12-h incubation by liquid-chromatography-coupled mass spectrometry (LC–MS)

[17] = enterocloster bolteae, 12 h, 2 µM
Description: The drug is tested on Clostridium bolteae strain: ATCCBAA-613 for biotransformation. The drug concentrations were measured before and after a 12-h incubation by liquid-chromatography-coupled mass spectrometry (LC–MS)

[18] = limosilactobacillus reuteri cf48-3a, 12 h, 2 µM
Description: The drug is tested on Lactobacillus reuteri CF48-3A strain: BEI HM-102 for biotransformation. The drug concentrations were measured before and after a 12-h incubation by liquid-chromatography-coupled mass spectrometry (LC–MS)

[19] = victivallis vadensis, 12 h, 2 µM
Description: The drug is tested on Victivallis vadensis strain: ATCC BAA-548 for biotransformation. The drug concentrations were measured before and after a 12-h incubation by liquid-chromatography-coupled mass spectrometry (LC–MS)

[20] = The drug is tested on Providencia stuartii strain: ATCC25827 for biotransformation. The drug concentrations were measured before and after a 12-h incubation by liquid-chromatography-coupled mass spectrometry (LC–MS); conditions: 2 µM

Row | SMILES | Bacterial Biotransformation [1] | Bacterial Biotransformation [2] | Bacterial Biotransformation [3] | Bacterial Biotransformation [4] | Bacterial Biotransformation [5] | Bacterial Biotransformation [6] | Bacterial Biotransformation [7] | Bacterial Biotransformation [8] | Bacterial Biotransformation [9] | Bacterial Biotransformation [10] | Bacterial Biotransformation [11] | Bacterial Biotransformation [12] | Bacterial Biotransformation [13] | Bacterial Biotransformation [14] | Bacterial Biotransformation [15] | Bacterial Biotransformation [16] | Bacterial Biotransformation [17] | Bacterial Biotransformation [18] | Bacterial Biotransformation [19] | Bacterial Biotransformation [20]
1 | NS(=O)(=O)c1cc2c(cc1Cl)N=C(CSCc1ccccc1)NS2(=O)=O [BENZTHIAZIDE] | Compound NOT metabolized | Compound NOT metabolized | Compound NOT metabolized | Compound NOT metabolized | Compound NOT metabolized | Compound metabolized | Compound NOT metabolized | Compound metabolized | Compound NOT metabolized | Compound NOT metabolized | Compound NOT metabolized | Compound NOT metabolized | Compound NOT metabolized | Compound NOT metabolized | Compound NOT metabolized | Compound NOT metabolized | Compound NOT metabolized | Compound NOT metabolized | Compound NOT metabolized | 
2 | C#C[C@]1(O)CC[C@H]2[C@@H]3CCC4=Cc5oncc5C[C@]4(C)[C@H]3CC[C@@]21C [DANAZOL] | Compound metabolized | Compound metabolized | Compound metabolized | Compound metabolized | Compound metabolized | Compound metabolized | Compound metabolized | Compound metabolized | Compound metabolized | Compound metabolized | Compound metabolized | Compound metabolized | Compound metabolized | Compound metabolized | Compound metabolized | Compound metabolized | Compound metabolized |  | Compound metabolized | Compound metabolized
3 | CCN(CC)C(=O)/C(C#N)=C/c1cc(O)c(O)c([N+](=O)[O-])c1 [ENTACAPONE] | Compound metabolized | Compound metabolized | Compound metabolized | Compound metabolized | Compound metabolized | Compound metabolized | Compound metabolized | Compound metabolized | Compound metabolized | Compound metabolized | Compound metabolized |  | Compound metabolized | Compound metabolized | Compound metabolized | Compound metabolized | Compound metabolized | Compound metabolized | Compound metabolized | Compound metabolized
4 | CC[C@H](C)C(=O)O[C@H]1CCC=C2C=C[C@H](C)[C@H](CC[C@@H]3C[C@@H](O)CC(=O)O3)[C@H]21 [MEVASTATIN] | Compound metabolized | Compound metabolized | Compound metabolized |  | Compound NOT metabolized | Compound metabolized | Compound metabolized | Compound metabolized | Compound metabolized | Compound metabolized | Compound metabolized | Compound metabolized | Compound metabolized | Compound metabolized | Compound metabolized | Compound metabolized | Compound metabolized | Compound metabolized | Compound metabolized | Compound metabolized
5 | CC#C[C@]1(O)CC[C@H]2[C@@H]3CCC4=CC(=O)CCC4=C3[C@@H](c3ccc(N(C)C)cc3)C[C@@]21C [MIFEPRISTONE] | Compound NOT metabolized | Compound NOT metabolized | Compound NOT metabolized | Compound NOT metabolized | Compound metabolized | Compound metabolized | Compound NOT metabolized | Compound metabolized | Compound metabolized | Compound NOT metabolized | Compound NOT metabolized | Compound NOT metabolized |  | Compound metabolized | Compound NOT metabolized | Compound NOT metabolized | Compound NOT metabolized | Compound NOT metabolized | Compound NOT metabolized | Compound NOT metabolized
6 | Nc1ccc(/N=N/c2ccccc2)c(N)n1 [PHENAZOPYRIDINE] |  | Compound metabolized | Compound metabolized | Compound metabolized | Compound metabolized | Compound metabolized | Compound metabolized | Compound metabolized | Compound metabolized | Compound metabolized | Compound metabolized | Compound NOT metabolized | Compound metabolized |  | Compound metabolized | Compound metabolized | Compound metabolized | Compound NOT metabolized | Compound metabolized | Compound NOT metabolized

Results, then the compound that gave them:

Row | Bacterial Biotransformation [1] | Bacterial Biotransformation [2] | Bacterial Biotransformation [3] | Bacterial Biotransformation [4] | Bacterial Biotransformation [5] | Bacterial Biotransformation [6] | Bacterial Biotransformation [7] | Bacterial Biotransformation [8] | Bacterial Biotransformation [9] | Bacterial Biotransformation [10] | Bacterial Biotransformation [11] | Bacterial Biotransformation [12] | Bacterial Biotransformation [13] | Bacterial Biotransformation [14] | Bacterial Biotransformation [15] | Bacterial Biotransformation [16] | Bacterial Biotransformation [17] | Bacterial Biotransformation [18] | Bacterial Biotransformation [19] | Bacterial Biotransformation [20] | SMILES
7 | Compound NOT metabolized | Compound NOT metabolized | Compound metabolized | Compound metabolized | Compound metabolized | Compound NOT metabolized | Compound metabolized | Compound NOT metabolized | Compound NOT metabolized | Compound metabolized | Compound NOT metabolized | Compound NOT metabolized | Compound metabolized | Compound metabolized |  | Compound NOT metabolized | Compound metabolized |  | Compound NOT metabolized | Compound NOT metabolized | CCOc1cc(CC(=O)N[C@@H](CC(C)C)c2ccccc2N2CCCCC2)ccc1C(=O)O [REPAGLINIDE]
8 | Compound metabolized | Compound metabolized | Compound metabolized | Compound metabolized | Compound metabolized | Compound metabolized | Compound metabolized | Compound metabolized | Compound metabolized | Compound metabolized | Compound metabolized | Compound NOT metabolized | Compound metabolized | Compound metabolized | Compound metabolized | Compound metabolized | Compound metabolized | Compound metabolized | Compound metabolized |  | O=C(O)c1cc(/N=N/c2ccc(S(=O)(=O)Nc3ccccn3)cc2)ccc1O [SULFASALAZINE]
